Values of other authors as cited in US4127527A, “Novel pentadecapeptides, intermediates therefor, and compositions and methods employing said pentadecapeptides” (priority 1977, dated 1978).

Experiments:
[1] = test system: brain opiate receptor sites; conditions: natural peptide; Bradbury et al., Nature 260, 793 (1976)
[2] = test system: rat; conditions: injected directly into the brain of the rat; Belluzzi et al., Nature 260, 625 (1976)

Q: For “H-Tyr-Gly-Gly-Phe-Met-OH [methionine enkephalin]”, which “binding to partially purified brain opiate receptor sites” value [1] is on record?
A: binds stereo-specifically

Q: What about the analgesic activity [2] of the same substance?
A: only weak analgesic agent of short duration
